Data as given in PMC9212912 (Structure (London, England : 1993), 2022).

Columns and labels:
[1] = test system: Calu-3 cells; details: 0.01 µM
[2] = test system: human HAT complex SAGA; test: In vitro acetyltransferase assay; format: biochemical
[3] = test system: human HAT complex NuA4/TIP60; test: In vitro acetyltransferase assay; format: biochemical
[4] = test system: native human MYST-family HAT complexes purified via MEAF6 (MYST); test: In vitro acetyltransferase assay, 3H-acetyl incorporation; format: biochemical; details: 0.5 μg peptide, 3H Ac-CoA, 30 minutes at 30 °C, liquid scintillation
[5] = test system: native human MYST-family HAT complex purified via BRPF2 (HBO1); test: as above; format: biochemical; details: 0.5 μg peptide, 3H Ac-CoA, 30 minutes at 30 °C, liquid scintillation
[6] = biological target: BRD4 ET domain (Homo sapiens, UniProt O60885); format: binding; details: 20 mM Tris pH 7.0, 100 mM NaCl, 3 mM DTT, 10% D2O

## Cc1sc2c(c1C)C(c1ccc(Cl)cc1)=N[C@@H](CC(=O)Nc1ccc(O)cc1)c1nnc(C)n1-2 [OTX015]
[1]
  Calu-3 cell viability: 98%

## SARS-CoV-2 E^48−72: peptide, aa 48–72 of SARS-CoV-2 E, acetyltransferase substrate (NVSLVKPSFYVYSRVKNLNSSRVPD; UniProt P0DTC4 48-72, looked up, fragment)
[2]
  Acetylation of the peptide by SAGA: undetectable
[3]
  Acetylation of the peptide by NuA4/TIP60: undetectable
[4]
  Acetylation of the peptide by MYST (MEAF6) complexes: able to some extent acetylate
[5]
  Acetylation of the peptide by HBO1 (BRPF2) complex: able to some extent acetylate

## SARS-CoV-2 E^53−72: longer non-acetylated peptide, aa 53–72 of SARS-CoV-2 E (KPSFYVYSRVKNLNSSRVPD)
[6]
  Chemical shift perturbations in BRD4 ET upon peptide addition: did not alter the pattern of CSPs

## SARS-CoV-2 E^57−69: peptide, aa 57–69 of SARS-CoV-2 E (YVYSRVKNLNSSR)
[6]
  Chemical shift perturbations in BRD4 ET upon peptide addition: small CSPs
